What was measured:
NOD1 H517A = target: T1, NOD1 H517A (Homo sapiens, UniProt Q9Y239, H517A); experiment: MST binding to purified NOD1 H517A-GFP
T1 construct: made in house
T1 sequence (Q9Y239 1-953 H517A): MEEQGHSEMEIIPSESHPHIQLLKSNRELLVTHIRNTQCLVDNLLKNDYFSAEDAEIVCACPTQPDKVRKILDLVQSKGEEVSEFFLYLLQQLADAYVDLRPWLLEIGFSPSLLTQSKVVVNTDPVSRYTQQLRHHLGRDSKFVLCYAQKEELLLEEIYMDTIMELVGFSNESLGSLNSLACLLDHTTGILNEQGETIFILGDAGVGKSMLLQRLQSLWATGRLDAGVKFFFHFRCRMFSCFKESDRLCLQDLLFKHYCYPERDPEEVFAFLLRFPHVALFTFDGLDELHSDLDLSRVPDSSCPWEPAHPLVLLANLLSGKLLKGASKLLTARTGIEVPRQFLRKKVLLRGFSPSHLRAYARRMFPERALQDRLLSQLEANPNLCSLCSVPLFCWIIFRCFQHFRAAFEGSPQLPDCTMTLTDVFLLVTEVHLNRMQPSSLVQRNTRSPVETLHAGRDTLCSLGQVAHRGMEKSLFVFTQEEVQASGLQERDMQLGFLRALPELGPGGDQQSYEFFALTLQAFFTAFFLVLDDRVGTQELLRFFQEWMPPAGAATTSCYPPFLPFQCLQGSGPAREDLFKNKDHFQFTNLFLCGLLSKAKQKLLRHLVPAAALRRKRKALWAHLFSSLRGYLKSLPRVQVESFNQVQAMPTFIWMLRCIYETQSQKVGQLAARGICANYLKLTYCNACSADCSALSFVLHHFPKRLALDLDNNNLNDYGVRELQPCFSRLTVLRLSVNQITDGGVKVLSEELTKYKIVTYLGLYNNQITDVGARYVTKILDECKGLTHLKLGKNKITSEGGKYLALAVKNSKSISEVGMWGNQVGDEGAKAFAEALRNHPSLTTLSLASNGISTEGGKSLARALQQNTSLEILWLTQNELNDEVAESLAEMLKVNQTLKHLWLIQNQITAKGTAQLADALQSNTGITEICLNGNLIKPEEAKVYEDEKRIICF
Experimental: (§1) The mutagenesis was performed with Q5® site‐directed mutagenesis kit (E0554, NEB) according to the manufacturer's instructions. The primers used in this study were as follows: NOD1 E157A F: 5′‐[…]gcg[…]‐3′, NOD1 E157A R: 5′‐[…]‐3′, NOD1 D161A F: 5′‐[…]gcg[…]‐3′, NOD1 D161A R: 5′‐[…]‐3′, NOD1 D203A F: 5′‐[…]gcg[…]‐3′, D203A R: 5′‐[…]‐3′, L218A F: 5′‐[…]gcg[…]‐3′, L218A R: 5′‐[…]‐3′, R237A F: 5′‐[…]gcg[…]‐3′, R237A R: 5′‐[…]‐3′, H257A F: 5′‐[…]gcg[…]‐3′, H257A R: 5′‐[…]‐3′, E267A F: 5′‐[…]gcg[…]‐3′, E267A R: 5′‐[…]‐3′, H290A F: 5′‐[…]gcg[…]‐3′, H290A R: 5′‐[…]‐3′, E306A F: 5′‐[…]gcg[…]‐3′, E306A R: 5′‐[…]‐3′, K324A F: 5′‐[…]gcg[…]‐3′, K324A R: 5′‐[…]‐3′, K328A F: 5′‐[…]gcg[…]‐3′, K328A R: 5′‐[…]‐3′, R340A F: 5′‐[…]gcg[…]‐3′, R340A R: 5′‐[…]‐3′, R344A F: 5′‐[…]gcg[…]‐3′, R344A R: 5′‐[…]‐3′, R350A F: 5′‐[…]gcg[…]‐3′, R350A R: 5′‐[…]‐3′, D372A F: 5′‐[…]gcg[…]‐3′, D372A R: 5′‐[…]‐3′, R373A F: 5′‐[…]gcg[…]‐3′, R373A R: 5′‐[…]‐3′, R399A F: 5′‐[…]gcg[…]‐3′, R399A R: 5′‐[…]‐3′, D423A F: 5′‐[…]gcg[…]‐3′, D423A R: 5′‐[…]‐3′, R435A F: 5′‐5′‐[…]gcg[…]‐3′, R435A R: 5′‐[…]‐3′, Q484A F: 5′‐[…]gcg[…]‐3′, Q484A R: 5′‐[…]‐3′, L495A F: 5′‐[…]gcg[…]‐3′, L495A R: 5′‐[…]‐3′, E514A F: 5′‐[…]gcg[…]‐3′, E514A R: 5′‐[…]‐3′, H517A F: 5′‐[…]gcg[…]‐3′, H517A R: 5′‐[…]‐3′, L540A F: 5′‐[…]gcg[…]‐3′, L540A R: 5′‐[…]‐3′, F544A F: 5′‐[…]gcg[…]‐3′, and F544A R: 5′‐[…]‐3′.

[1] = tested on: HEK293T NOD1/2 KO cells transfected with NOD1 or NOD2 mutants; experiment: IL8 ELISA of HEK293T cells transfected with NOD1/NOD2 mutants; assay type: cell-based, human
Experimental: To differentiate THP‐1 into macrophage‐like cells, THP‐1 cells were stimulated with 50 ng/ml phorbol 12‐myristate 13‐acetate (Sigma‐Aldrich, P8139) for 24 h and then incubated with fresh medium for another 48 h. […] To induce NOD1 or NOD2 expression, HeLa NOD1 or NOD2 cells were treated with 0.5 µg/ml or 0.25 µg/ml doxycycline for at least 16 h, respectively. All cells have been checked for mycoplasma contamination regularly. Bone marrow‐derived macrophages (BMDMs) were obtained from tibial and femural bones and generated with DMEM containing 20% L929 cell supernatant, 10% FBS, 5% heat‐inactivated horse serum, 1 mM sodium pyruvate, and 2 mM L‐glutamine. For BMDM stimulation experiments, BMDMs were treated with IFN‐γ (20 ng/ml) overnight before stimulation.
as §1

`CCCCCCCCCCCCC/C=C/[C@@H](O)[C@@H](N)COP(=O)(O)O` [S1P, sphingosine‐1‐phosphate] was tested, and the Kd (NOD1 H517A; Kd value of NOD1 H517A with S1P) was roughly 15 µM, the Kd (NOD1 H517A; Kd(NOD1 H517A: S1P), Fig 7E) was 13.7 ± 6.1 µM and the “IL8 production in cells expressing LRR-deficient NOD1/2 (NOD1/2∆LRR)” value ([1]; 20 µM with digitonin, 20 h) was “elevated”. For the same compound, the “IL8 production in cells expressing NOD1/2 WT” value ([1]; 20 µM with digitonin, 20 h) was “induced”, the “IL8 production / activation in HEK293T cells expressing NOD2 1007fs” value ([1]; 20 µM, 48 h, digitonin) was “increased” and the “Activation (IL8) of NOD1 K328A or H517A” value ([1]; Fig EV5H) was “not”.

— PMC8246065 (The EMBO Journal, 2021)
